What was measured:
[1] = Cytotoxicity against human HEK-Blue cells transfected with hTLR8 assessed as reduction in cell viability at 50 uM after 24 hrs by MTT assay; format: cell-based
[2] = target: T1, Toll-like receptor 8 (Homo sapiens) (UniProt Q9NR97); assay: Antagonist activity at human TLR8 expressed in HEK-Blue cells assessed as inhibition of CL075-induced NF-kappaB activation incubated for 1 hr followed by CL075-stimulation and measured after 24 hrs by quanti-blue SEAP assay; format: cell-based
T1 sequence (whole entry): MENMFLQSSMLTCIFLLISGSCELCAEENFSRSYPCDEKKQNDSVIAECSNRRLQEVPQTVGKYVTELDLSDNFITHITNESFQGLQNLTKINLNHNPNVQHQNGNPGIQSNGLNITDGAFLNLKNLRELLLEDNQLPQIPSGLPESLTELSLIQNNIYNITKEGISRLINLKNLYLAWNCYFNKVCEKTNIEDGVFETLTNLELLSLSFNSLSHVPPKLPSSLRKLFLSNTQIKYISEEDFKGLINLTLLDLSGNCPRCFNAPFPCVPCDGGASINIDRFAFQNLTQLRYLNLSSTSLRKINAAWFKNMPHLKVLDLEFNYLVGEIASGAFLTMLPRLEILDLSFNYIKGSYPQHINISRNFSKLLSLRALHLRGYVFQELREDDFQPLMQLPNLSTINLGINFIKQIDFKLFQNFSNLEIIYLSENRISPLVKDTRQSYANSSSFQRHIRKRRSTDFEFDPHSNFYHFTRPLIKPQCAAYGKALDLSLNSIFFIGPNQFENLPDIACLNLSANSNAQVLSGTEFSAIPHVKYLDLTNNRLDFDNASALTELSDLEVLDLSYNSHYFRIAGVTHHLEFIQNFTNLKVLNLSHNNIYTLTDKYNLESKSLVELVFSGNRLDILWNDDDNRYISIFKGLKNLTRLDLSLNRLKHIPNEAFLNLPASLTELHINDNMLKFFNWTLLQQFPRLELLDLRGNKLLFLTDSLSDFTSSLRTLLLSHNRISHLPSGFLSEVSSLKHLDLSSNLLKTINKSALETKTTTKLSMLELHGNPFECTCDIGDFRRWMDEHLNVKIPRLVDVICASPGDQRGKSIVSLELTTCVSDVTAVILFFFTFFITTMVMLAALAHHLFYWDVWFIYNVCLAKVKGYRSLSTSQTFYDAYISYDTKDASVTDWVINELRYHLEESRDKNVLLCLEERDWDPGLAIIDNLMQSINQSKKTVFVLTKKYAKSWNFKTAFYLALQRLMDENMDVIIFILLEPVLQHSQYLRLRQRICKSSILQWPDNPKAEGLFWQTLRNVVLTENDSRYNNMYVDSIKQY

THP-1 [3] = assay: Antiinflammatory activity in human THP1 cells assessed as reduction in CL075-induced IL-8 secretion at 10 to 25 uM preincubated for 1 hr followed by CL075-stimulation and measured after 24 hrs by ELISA relative to control; format: functional
THP-1 [4] = assay: Cytotoxicity against human THP1 cells assessed as reduction in cell viability at 50 uM after 24 hrs by MTT assay; format: cell-based; conditions: thp-1, 24 h
[5] = Cytotoxicity against human HEK-Blue cells transfected with hTLR8 at 25 to 50 uM after 24 hrs by MTT assay; format: cell-based
THP-1 [6] = assay: Cytotoxicity against human THP1 cells at 25 to 100 uM after 24 hrs by MTT assay; format: cell-based; conditions: thp-1, 24 h

Question: Which Activity [1] does the source give for `FC(F)(F)c1cc(-c2ccco2)nc(NCc2cccs2)n1` here?
Answer: Its Activity is “Toxic”.

Question: What about the inhibition [2] of the same compound?
Answer: The inhibition was “Dose-dependent effect”.

Question: What about the “inhibition (INH)” value (THP-1 [3]) of the same compound?
Answer: The value was over 70%.

Question: What about the Activity (THP-1 [4]) of the same compound?
Answer: The Activity was “Toxic”.

Question: What does the source list for `FC(F)(F)c1cc(-c2ccccc2)nc(NCc2cccs2)n1`?
Answer: Activity [5]: Non-Toxic; inhibition (INH) (THP-1 [3]): >70%; Activity (THP-1 [6]): Non-Toxic

Question: Which Activity [5] does the source give for `CCCCNc1nc(-c2cccs2)cc(C(F)(F)F)n1` here?
Answer: Its Activity is “Non-Toxic”.

Question: What about the “inhibition (INH)” value (THP-1 [3]) of the same compound?
Answer: Its value is 50%.

Question: What about the Activity (THP-1 [6]) of the same compound?
Answer: Its Activity is “Non-Toxic”.
